Data from patent US4144236A (priority 1973, dated 1979).
Read-outs that look alike come from different tables or passages of the source.

What was measured:
[1] = system: electrical stimulation induced coughing; assay: Anti-tussive activity: electrical stimulation (superior laryngeal nerve) induced coughing in cats (method of Domenjoz); assay type: in vivo; conditions: for ED100 / ED50: Felis catus; for ED100: read-out: AtD100; for ED50: read-out: AtD50
Procedure: Anti-tussive activity in cats was determined by the method of Domenjoz. Cats weighing 2.5 to 3.5 kg were anesthetized with an i.p. dose of 30 mg per kg of sodium pentobarbitone. […] The cough responses were measured by means of a Marey-tambour connected to a face mask and recorded on a smoked paper. Drugs were given intravenously in increasing doses. The effect of each dose was measured on at least five cats. The effects of the drug was calculated from the changes of amplitude of cough curves. If no coughing was produced by two successive stimulations, the dose was taken as the effective anti-tussive dose (AtD100). The anti-tussive dose (AtD50) which reduces the control response by 50% was calculated by the method of Litchfield and Wilcoxon.

[2] = system: citric acid aerosol induced cough; assay: animal or person; assay type: in vivo, Wistar rats; conditions: for ED50: Rattus norvegicus, read-out: AtD50
Procedure: The anti-tussive activity in rats was tested by the method of Gosswald. Wistar rats weighing 130 to 180 g were placed in a plexi box (23 × 22 × 11 cm) and cough responses were elicited by citric acid aerosol (10%). The latency period of cough was measured before and after drug administration. The control latency was determined 18 hours before the drug administration. Animals with less than 60 second control latency were used for the experiments. […] Each animal was exposed to citric acid aerosol for a period of 3 minutes 30 seconds and 60 minutes after drug administration. […] Ten animals were used at each dose level. The anti-tussive dose (AtD50) was calculated according to Litchfield and Wilcoxon. The drugs were administered by subcutaneous and oral routes.

[3] = Blood pressure changes in anesthetized cats; conditions: for Change in blood pressure: drop from control
Procedure: Blood pressure changes were studied in cats anesthetized with pentabarbitone sodium (35 mg/kg, i.p.). The substances were injected into the right femoral vein, responses to drugs were measured by means of a mercury manometer and recorded on a smoke cylinder.

[4] = Source text: ^++ D'Amour,D.E. and Smith,D.L.: J.Pharm.Expt.Ther. 72. 74 (1941)
Remark: listed apart in the source
[5] = Analgesic activity, writhing test (Van der Wende and Margolin), s.c., mice; conditions: Mus musculus, sc, read-out: ED50 (Writhing test)
in vivo = conditions: rat, sc
[6] = Analgesic ED50, hot plate test, i.p. (footnote of Table 4); assay type: in vivo; conditions: for ED50: ip, read-out: ED50 (analgesic)
Procedure: 0.025 mg./kg. i.p., Compound "A": 0.0125 mg./kg. i.p. (measured by the ho

[7] = Physical dependency disposition test (spring-test; jumping after naloxone) for 2 days on mice; conditions: Haloxone 100 mg./kg., 2nd day; for Average jump per mouse: mice
Procedure: ^+ The total dosage was added intraperitoneally in seven, gradually
increasing increments, within 26 hours.

[8] = iv, cats, i.v., no coughing by two successive stimulations
[9] = sc, rats, s.c., limits in brackets
[10] = anesthetized cats, 0.5 mg/kg i.v.
[11] = anesthetized cats, 0.5 mg/kg i.v., means ± S.E.
[12] = cats, i.v., no coughing by two successive stimulations
[13] = rats, s.c., 95% confidence limits on the next line
[14] = rats, s.c., 95% confidence limits given
[15] = total dosage 1 i.p. in 26 hours
[16] = total dosage 10 i.p. in 26 hours
[17] = total dosage 40 i.p. in 26 hours
[18] = total dosage 70 i.p. in 26 hours
[19] = total dosage 100 i.p. in 26 hours
[20] = total dosage 200 i.p. in 26 hours
[21] = total dosage 400 i.p. in 26 hours
[22] = total dosage 1000 i.p. in 26 hours

## COc1ccc2c3c1O[C@H]1C(N=[N+]=[N-])CC[C@@]4(O)[C@@H](C2)N(C)CC[C@]314 (some centres unmarked) [14-OH-azidocodeine]
[1]; [8]
  ED100: 1.47 ± 0.07 mg/kg
[1]; iv, cats, i.v.
  ED50: 0.6 mg/kg
[1]; cats, i.v.
  Ratio codeine/drug (AtD50): 2.42
  Ratio codeine/drug (AtD100): 2.91
[2]; [9]
  ED50: 0.82 mg/kg
[2]; rats, s.c.
  Ratio codeine/drug (AtD50): 23.17
[3]; [10]
  Change in blood pressure: 3 ± 1.3 mm Hg
[3]; [11]
  Blood pressure after drug: 126 ± 6.6 mm Hg
[3]; anesthetized cats, i.v.
  blood pressure effect in words: The substances studied, except azidocodeine and 14-hydroxy-azidocodeine, lowered blood pressure

## COc1ccc2c3c1O[C@H]1[C@H](N=[N+]=[N-])CC[C@H]4[C@@H](C2)N(C)CC[C@@]341 [Azidocodeine]
[1]; cats, i.v.
  AtD50: 0.40 mg/kg i.v.
  Ratio codeine/drug (AtD50): 3.63
  Ratio codeine/drug (AtD100): 4.69
[1]; [12]
  AtD100: 1.08 ± 0.04 mg/kg i.v.
[2]; rats, s.c.
  Ratio codeine/drug (AtD50): 12.10
[2]; rats, s.c., limits in brackets
  AtD50: 1.57 (1.20-2.41) mg/kg s.c.
[3]; [10]
  Change in blood pressure: 6 ± 3.8 mm Hg
[3]; [11]
  Blood pressure after drug: 122 ± 5.2 mm Hg
[3]; anesthetized cats, i.v.
  blood pressure effect in words: The substances studied, except azidocodeine and 14-hydroxy-azidocodeine, lowered blood pressure

## CN1CC[C@]23c4c5ccc(O)c4O[C@H]2[C@H](N=[N+]=[N-])CC[C@H]3[C@H]1C5 [Azidomorphine, 6-deoxy-6-azido-7,8-dihydroisomorphine]
[4]; [13]
  ED50 (tail flick test): 0.012 s.c. mg./kg.
[14]
  ED50 (hot plate): 0.016 mg./kg.s.c.
[5]
  ED50: 0.013 mg/kg
In vivo
  LD50: 13 mg/kg
[6]
  ED50: 0.025 mg/kg
[2]; [9]
  ED50: 0.034 mg/kg
[2]; rats, s.c.
  Ratio codeine/drug (AtD50): 558.82
[7]; [15]
  Average jump per mouse: 0.0
  Jumping mice/examined mice: 0/25
[7]; [16]
  Average jump per mouse: 1.4
  Jumping mice/examined mice: 10/25
[7]; [17]
  Average jump per mouse: 10.1
  Jumping mice/examined mice: 19/25
[7]; [18]
  Average jump per mouse: 7.4
  Jumping mice/examined mice: 12/25
[3]; anesthetized cats, 0.0035 mg/kg i.v.
  Change in blood pressure: 40 ± 3.4 mm Hg
[3]; anesthetized cats, 0.0035 mg/kg i.v., means ± S.E.
  Blood pressure after drug: 103 ± 9.3 mm Hg
[3]; in vivo
  tolerance to the vasodepressor responses: cross tolerance between morphine, codeine, azidomorphine and 14-hydroxyazidomorphine* was observed

## COc1ccc2c3c1O[C@H]1[C@@H](O)C=C[C@H]4[C@@H](C2)N(C)CC[C@@]341 [Codeine]
[1]; [8]
  ED100: 5.07 ± 1.87 mg/kg
[1]; iv, cats, i.v.
  ED50: 1.45 mg/kg
[2]; [9]
  ED50: 19 mg/kg
[2]; rats, oral, limits in brackets
  ED50: 100 mg/kg
[3]; anesthetized cats, 1.5 mg/kg i.v.
  Change in blood pressure: 26 ± 4.9 mm Hg
[3]; anesthetized cats, 1.5 mg/kg i.v., means ± S.E.
  Blood pressure after drug: 98 ± 5.3 mm Hg
[3]; anesthetized cats, successive administrations
  tolerance to the vasodepressor responses: cross tolerance between morphine, codeine, azidomorphine and 14-hydroxyazidomorphine* was observed

## CN1CC[C@]23c4c5ccc(O)c4O[C@H]2[C@H](N=[N+]=[N-])CC[C@@]3(O)[C@H]1C5 [Compound "A", 6-deoxy-6-azido-14-hydroxy-7,8-dihydroisomorphine]
[4]; [13]
  ED50 (tail flick test): 0.029 s.c. mg./kg.
rat, in vivo
  therapeutical indices in words: more favorable therapeutical indices than any of the known substances with similar biological activities
[14]
  ED50 (hot plate): 0.012 mg./kg.s.c.
[5]
  ED50: 0.051 mg/kg
[1]; iv
  ED50: 0.012 mg/kg
  ED100: 0.02 ± 0.002 mg/kg
[1]; in vivo, iv
  Ratio codeine/drug (AtD50): 120.83
  Ratio codeine/drug (AtD100): 253.50
In vivo
  LD50: 200 mg/kg
[6]; hot plate test
  ED50: 0.0125 mg/kg
[2]; po
  ED50: 10 mg/kg
[2]; [9]
  ED50: 0.021 mg/kg
[2]; rat, in vivo
  anti-tussive activity in words: superior anti-tussive to those anti-tussives currently in use
[2]; rat, in vivo, po
  Ratio codeine/drug (AtD50): 10.00
[2]; rat, in vivo, sc
  potency as an anti-tussive relative to codeine: 904 times
[2]; rats, s.c.
  Ratio codeine/drug (AtD50): 904.76
[7]; [16]
  Average jump per mouse: 0.9
  Jumping mice/examined mice: 3/25
[7]; [18]
  Average jump per mouse: 3.8
  Jumping mice/examined mice: 14.25
[3]; in vivo
  tolerance to the vasodepressor responses: cross tolerance between morphine, codeine, azidomorphine and 14-hydroxyazidomorphine* was observed
[3]; in vivo, iv
  blood pressure effect in words: greatest drop in blood pressure of all compounds tested
[3]; in vivo, iv, 0.035 mg/kg
  Blood pressure after drug: 97 ± 4.5 mm Hg

## CCC(=O)C(CC(C)N(C)C)(c1ccccc1)c1ccccc1 (centres unmarked) [Methadone]
[4]; rat, in vivo, sc
  ED50 (tail flick test): 1.6 s.c. mg./kg.
rat, in vivo, sc
  ED50 (hot plate): 1.9 mg./kg.s.c.
[5]
  ED50: 0.71 mg/kg
In vivo
  LD50: 28 mg/kg

## CN1CC[C@]23c4c5ccc(O)c4O[C@H]2[C@@H](O)C=C[C@H]3[C@H]1C5 [Morphine]
[4]; rat, in vivo, sc
  ED50 (tail flick test): 1.8 s.c. mg./kg.
rat, in vivo, sc
  ED50 (hot plate): 4.7 mg./kg.s.c.
[5]
  ED50: 0.69 mg/kg
[1]; iv
  ED50: 0.61 mg/kg
[1]; [12]
  AtD100: 1.28 ± 0.32 mg/kg i.v.
[6]; i.p., hot plate test
  ED50 (analgesic): 5 mg./kg. i.p.
[7]; [19]
  Average jump per mouse: 9.7
  Jumping mice/examined mice: 20/25
[7]; [20]
  Average jump per mouse: 46.4
  Jumping mice/examined mice: 25/25
[7]; [21]
  Average jump per mouse: 42.7
  Jumping mice/examined mice: 25/25
[7]; [22]
  Average jump per mouse: 48.7
  Jumping mice/examined mice: 25/25
[3]; anesthetized cats, 1.03 mg/kg i.v.
  Change in blood pressure: 39 ± 2.1 mm Hg
[3]; anesthetized cats, 1.03 mg/kg i.v., means ± S.E.
  Blood pressure after drug: 92 ± 1.0 mm Hg
[3]; anesthetized cats, i.v.
  blood pressure effect in words: only morphine produced a biphasic hypotensive effect

## CC(C)=CCN1CCC2(C)c3cc(O)ccc3CC1C2C (centres unmarked) [Pentazocine]
[4]; [13]
  ED50 (tail flick test): 12 s.c. mg./kg.
[14]
  ED50 (hot plate): 9.1 mg./kg.s.c.
[5]
  ED50: 8.1 mg/kg
In vivo
  LD50: 280 mg/kg

## CCOC(=O)C1(c2ccccc2)CCN(C)CC1 [Petidine]
[4]; [13]
  ED50 (tail flick test): 4.3 s.c. mg./kg.
[14]
  ED50 (hot plate): 4.9 mg./kg.s.c.
[5]
  ED50: 3.3 mg/kg
In vivo
  LD50: 280 mg/kg
